# Experimental data: US5599811A, “Benzothiazine dioxides as endothelin antagonists” (Warner-Lambert Company, priority 1995, dated 1997)
# pIC50: −log10 of the molar value.
# Columns and labels:
# [1] = molecular target: T1, recombinant human ETA R (Homo sapiens, UniProt P25101); assay type: binding; details: [125I]-ET-1 40 pM, 2 hours at 37° C.; read-out: HERBAA IC50
# T1 construct: expressed in transfected cells; host or cells: Ltk- cells
# T1 sequence (P25101 21-427): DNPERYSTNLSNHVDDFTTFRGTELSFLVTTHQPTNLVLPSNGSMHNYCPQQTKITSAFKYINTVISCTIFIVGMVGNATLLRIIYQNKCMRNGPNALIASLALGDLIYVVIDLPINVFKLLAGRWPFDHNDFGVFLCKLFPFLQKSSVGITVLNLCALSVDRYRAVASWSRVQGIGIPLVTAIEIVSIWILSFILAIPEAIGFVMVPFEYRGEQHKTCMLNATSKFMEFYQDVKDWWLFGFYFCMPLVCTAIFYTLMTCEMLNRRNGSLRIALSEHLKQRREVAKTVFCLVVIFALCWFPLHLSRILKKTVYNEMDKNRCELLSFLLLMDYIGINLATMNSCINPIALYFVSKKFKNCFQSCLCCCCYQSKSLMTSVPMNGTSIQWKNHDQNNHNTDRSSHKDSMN
# Experimental: (§1) The compounds of Formula I are valuable antagonists of endothelin.
# (§2) The following cultured cells were used in binding experiments: rabbit renal artery vascular smooth muscle cells (ERBA-A), Ltk-cells expressing recombinant human ETA R (HERBA-A), and CHO-K1 cells expressing recombinant human ETB R (HERBA-B).
# (§3) Membranes were prepared from cultured cells by lysing cells in cold lysis buffer (5 mM HEPES, 2 mM EDTA, pH 7.4) and homogenizing with a Dounce "A" homogenizer. The homogenate was centrifuged at 30,000× g for 20 minutes at 4° C. Membrane pellets were suspended in cold buffer containing 20 mM Tris, 2 mM EDTA, 200 μM Pefabloc, 10 μM phosphoramidon, 10 μM leupeptin, 1 μM pepstatin at pH 7.4 and frozen at -80° C. until use. Membranes were thawed and homogenized with a Brinkmann Polytron then diluted in tissue buffer containing 20 mM Tris, 2 mM EDTA, 200 μM Pefabloc, and 100 μM bacitracin (pH 7.4). Radioligand and competing ligands were prepared in binding buffer containing 20 mM Tris, 2 mM EDTA, and 0.1% BSA.
# (§4) Competing binding assays were initiated by combining membranes, [125I]-ET-1 (40 pM) and the competing ligand in a final volume of 250 μL and incubating for 2 hours at 37° C. The assay was terminated by filtration over Whatman GF/B filters which were presoaked with 50 mM Tris, pH 7.4 containing 0.2% BSA and 100 μM bacitracin. Nonspecific binding was defined as binding in the presence of 100 nM ET-1.
# [2] = molecular target: T2, recombinant human ETB R (Homo sapiens, UniProt P24530); assay type: binding; details: [125I]-ET-1 40 pM, 2 hours at 37° C.; read-out: HERBAB IC50
# T2 construct: expressed in transfected cells; host or cells: CHO-K1 cells
# T2 sequence (P24530 27-442): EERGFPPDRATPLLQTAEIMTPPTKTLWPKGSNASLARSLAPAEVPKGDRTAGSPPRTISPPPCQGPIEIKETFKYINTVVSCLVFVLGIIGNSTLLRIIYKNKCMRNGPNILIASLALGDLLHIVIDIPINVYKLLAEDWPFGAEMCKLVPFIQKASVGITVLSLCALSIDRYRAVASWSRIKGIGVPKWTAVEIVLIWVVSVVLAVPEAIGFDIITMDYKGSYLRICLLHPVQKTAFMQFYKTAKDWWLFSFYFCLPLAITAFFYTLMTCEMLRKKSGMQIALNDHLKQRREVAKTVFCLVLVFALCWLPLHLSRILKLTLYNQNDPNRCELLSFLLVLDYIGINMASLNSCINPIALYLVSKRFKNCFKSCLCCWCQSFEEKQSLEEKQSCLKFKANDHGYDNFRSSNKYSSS
# Experimental: as §1, §2, §3, §4
# [3] = molecular target: T3, ETA (Oryctolagus cuniculus, UniProt A5A8K3); assay: AAR: inhibition of ET-1 stimulated arachidonic acid release in cultured rabbit renal artery vascular smooth muscle cells; assay type: cell-based; details: 0.3 nM ET-1, 30 minutes
# T3 construct: cultured rabbit renal artery vascular smooth muscle cells; endogenous in cells; host or cells: cultured rabbit renal artery vascular smooth muscle cells
# T3 sequence (A5A8K3 21-427): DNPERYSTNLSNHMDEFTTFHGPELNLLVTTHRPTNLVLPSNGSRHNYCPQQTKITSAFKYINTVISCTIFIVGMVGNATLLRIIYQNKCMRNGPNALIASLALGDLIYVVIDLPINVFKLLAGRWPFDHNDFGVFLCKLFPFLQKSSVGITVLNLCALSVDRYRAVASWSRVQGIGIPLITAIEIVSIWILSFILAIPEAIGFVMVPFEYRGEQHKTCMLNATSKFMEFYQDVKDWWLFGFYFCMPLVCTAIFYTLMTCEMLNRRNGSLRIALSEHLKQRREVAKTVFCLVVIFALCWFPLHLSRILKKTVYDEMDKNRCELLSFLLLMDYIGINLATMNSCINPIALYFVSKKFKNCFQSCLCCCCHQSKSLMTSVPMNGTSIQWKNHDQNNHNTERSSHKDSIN
# Excerpt: as §1
# [4] = molecular target: T3, ETA; assay: VERA-A: antagonism of ET-1 stimulated vasoconstriction in the rabbit femoral artery; details: rabbit femoral artery rings, antagonist added 30 minutes before ET-1; read-out: VERAA pA2 (converted)
pIC50 [1],pIC50 [2],pIC50 [3],Kb [4] [µM],SMILES
5.74,5.31,–,–,"COc1ccc(CN2C(C(=O)O)=C(c3ccc4c(c3)OCO4)c3ccccc3S2(=O)=O)c(OCC(=O)O)c1 [Example 30, 4-Benzo[1,3]dioxol-5-yl-2-(2-carboxymethoxy-4-methoxybenzyl)-1,1-dioxo-1,2-dihydro-1λ^6-benzo[e][1,2]thiazine-3-carboxylic acid]"
6.40,5.64,–,–,"COc1ccc(CN2C(C(=O)O)=C(Sc3ccc4c(c3)OCO4)c3ccccc3S2(=O)=O)cc1 [Example 44, 4-(benzo[1,3]dioxol-5-ylsulfanyl)-2-(4-methoxy-benzyl)-1,1-dioxo-1,2-dihydro-1λ^6-benzo[e][1,2]thiazine-3-carboxylic acid]"
5.52,< 4.60,–,–,"O=C(NS(=O)(=O)c1ccccc1)C1=C(c2ccc3c(c2)OCO3)c2ccccc2S(=O)(=O)N1Cc1ccc2c(c1)OCO2 [Example 35, N-(4-Benzo[1,3]dioxo-5-yl-2-benzo[1,3]dioxol-5-ylmethyl-1,1-dioxo-1,2-dihydro-1λ^6-benzo[e][1,2]thiazine-3-carbonyl)-benzenesulfonamide]"
4.96,< 4.60,–,–,"COc1cc(C2=C(C(=O)O)N(Cc3ccc4c(c3)OCO4)S(=O)(=O)c3ccccc32)cc(OC)c1OC [Example 24, 2-Benzo[1,3]dioxol-5-ylmethyl-1,1-dioxo-4-(3,4,5-trimethoxyphenyl)-1,2-dihydro-1λ^6-benzo[e][1,2]thiazine-3-carboxylic acid]"
6.14,5.44,–,–,"COc1ccc(C2=C(C(=O)O)N(Cc3ccc4c(c3)OCO4)S(=O)(=O)c3ccccc32)cc1OC [Example 33, 2-Benzo[1,3]dioxol-5-ylmethyl-4-(3,4-dimethoxy-phenyl)-1,1-dioxo-1,2-dihydro-1λ^6-benzo[e][1,2]thiazine-3-carboxylic acid]"
7.26,6.42,5.89,–,"O=C(O)C1=C(c2ccc3c(c2)OCO3)c2ccccc2S(=O)(=O)N1Cc1cc2c(cc1Cl)OCO2 [Example 31, 4-Benzo[1,3]dioxol-5-yl-2-(6-chloro-benzo[1,3]dioxol-5-ylmethyl)-1,1-dioxo-1,2-dihydro-1λ^6-benzo[e][1,2]thiazine-3-carboxylic acid]"
6.77,5.33,–,–,"COc1cc(CN2C(C(=O)O)=C(c3ccc4c(c3)OCO4)c3ccccc3S2(=O)=O)cc(OC)c1OC [Example 29, 4-Benzo[1,3]dioxol-5-yl-1,1-dioxo-2-(3,4,5-trimethoxybenzyl)-1,2-dihydro-1λ^6-benzo[e][1,2]thiazine-3-carboxylic acid]"
5.77,< 4.60,–,–,"CN1C(C(=O)O)=C(c2ccc3c(c2)OCO3)c2ccccc2S1(=O)=O [Example 25, 4-Benzo[1,3]dioxol-5-yl-2-methyl-1,1-dioxo-1,2-dihydro-1λ^6-benzo[e][1,2]thiazine-3-carboxylic acid]"
6.52,5.51,–,–,"O=C(O)C1=C(c2ccc3c(c2)OCO3)c2ccccc2S(=O)(=O)N1Cc1ccc2c(c1)OCO2 [Example 26, 4-Benzo[1,3]dioxol-5-yl-2-benzo[1,3]dioxol-5-ylmethyl-1,1-dioxo-1,2-dihydro-1λ^6-benzo[e][1,2]thiazine-3-carboxylic acid]"
7.00,4.60,–,–,"CN1C(C(=O)O)=C(Sc2ccc3c(c2)OCO3)c2ccccc2S1(=O)=O [Example 41, 4-(benzo[1,3]dioxol-5-ylsulfanyl)-2-methyl-1,1-dioxo-1,2-dihydro-1λ^6-benzo[e][1,2]thiazine-3-carboxylic acid]"
6.29,4.66,–,–,"O=C(O)C1=C(Sc2ccc3c(c2)OCO3)c2ccccc2S(=O)(=O)N1Cc1cc2c(cc1Cl)OCO2 [Example 46, 4-(Benzo[1,3]dioxol-5-ylsulfanyl)-2-(6-chloro-benzo[1,3]dioxol-5-ylmethyl)-1,1-dioxo-1,2-dihydro-1λ^6-benzo[e][1,2]thiazine-3-carboxylic acid]"
6.64,5.09,–,–,"COc1ccc(SC2=C(C(=O)O)N(Cc3ccc4c(c3)OCO4)S(=O)(=O)c3ccccc32)cc1OC [Example 48, 2-Benzo[1,3]dioxol-5-ylmethyl-4-(3,4-dimethoxyphenylsulfanyl)-1,1-dioxo-1,2-dihydro-1λ^6-benzo[e][1,2]thiazine-3-carboxylic acid]"
7.18,5.27,5.92,> 10,"O=C(O)C1=C(Sc2ccc3c(c2)OCO3)c2ccccc2S(=O)(=O)N1Cc1ccc2c(c1)OCO2 [Example 42, 2-Benzo[1,3]dioxol-5-ylmethyl-4-(benzo[1,3]dioxol-5-ylsulfanyl)-1,1-dioxo-1,2-dihydro-1λ^6-benzo[e][1,2]thiazine-3-carboxylic acid]"
6.80,5.34,–,–,"O=C(O)C1=C(c2ccc3c(c2)OCO3)c2ccccc2S(=O)(=O)N1Cc1ccccc1 [Example 27, 4-Benzo[1,3]dioxol-5-yl-2-benzyl-1,1-dioxo-1,2-dihydro-1λ^6-benzo[e][1,2]thiazine-3-carboxylic acid]"
6.92,4.92,–,–,"O=C(O)C1=C(Sc2ccc3c(c2)OCO3)c2ccccc2S(=O)(=O)N1Cc1ccccc1 [Example 43, 4-(benzo[1,3]dioxol-5-ylsulfanyl)-2-benzyl-1,1-dioxo-1,2-dihydro-1λ^6-benzo[e][1,2]thiazine-3-carboxylic acid]"
6.70,4.92,–,–,"COc1cc(CN2C(C(=O)O)=C(Sc3ccc4c(c3)OCO4)c3ccccc3S2(=O)=O)cc(OC)c1OC [Example 45, 4-(benzo[1,3]dioxol-5-ylsulfanyl)-2-(3,4,5-trimethoxy-benzyl)-1,1-dioxo-1,2-dihydro-1λ^6-benzo[e][1,2]thiazine-3-carboxylic acid]"
6.52,5.33,–,–,"COc1cc(CN2C(C(=O)O)=C(c3ccc4c(c3)OCO4)c3ccccc3S2(=O)=O)cc2c1OCO2 [Example 32, 4-Benzo[1,3]dioxol-5-yl-2-(7-methoxy-benzo[1,3]dioxol-5-ylmethyl)-1,1-dioxo-1,2-dihydro-1λ^6-benzo[e][1,2]thiazine-3-carboxylic acid]"
6.29,5.06,–,–,"COc1cccc(SC2=C(C(=O)O)N(Cc3ccc4c(c3)OCO4)S(=O)(=O)c3ccccc32)c1 [Example 49, 2-Benzo[1,3]dioxol-5-ylmethyl-4-(3-methoxyphenylsulfanyl)-1,1-dioxo-1,2-dihydro-1λ^6-benzo[e][1,2]thiazine-3-carboxylic acid]"
6.52,5.46,–,–,"COc1cc2c(cc1OC)S(=O)(=O)N(Cc1ccc3c(c1)OCO3)C(C(=O)O)=C2Sc1ccc2c(c1)OCO2 [Example 50, 2-Benzo[1,3]dioxol-5-ylmethyl-4-(benzo[1,3]dioxol-5-ylsulfanyl)-6,7-dimethoxy-1,1-dioxo-1,1-dihydro-1λ^6-benzo[e][1,2]thiazine-3-carboxylic acid]"
